{"source": "paper PMC11950852", "about": "“Diversity Scale of Library Matters: Impact of mRNA Library Diversity Scales on the Discovery of Macrocyclic Peptides Targeting a Protein by the RaPID System” (ACS Central Science, 2025)", "key": {"[1]": {"biological_target": "Fc-fused MET (His-/hFc-tagged human MET ectodomain) (Homo sapiens, UniProt P08581)", "assay": "SPR binding kinetics of selected macrocyclic peptides to Fc-fused MET", "details": "for kon: pH 7.4, read-out: ka", "experimental": "The binding kinetic constants (ka and kd) and dissociation constant (KD) of each macrocyclic peptide were determined by surface plasmon resonance, SPR (Table 1, Figure S8).\nBinding kinetics analysis of peptides by SPR\nThe binding affinities of selected peptides targeting Fc-fused MET were analyzed by SPR using a Biacore\n8K instrument (Cytiva) at 25 °C. The composition of the running buffer was HBS EP+ buffer (10 mM\nHEPES pH 7.4, 150 mM NaCl, 3 mM EDTA, and 0.05% (v/v) Surfactant P20) containing 0.1% DMSO.\nThe target protein, Fc-fused MET, was immobilized on a Biacore sensor chip ProteinG (Cytiva) to 1,500–\n2,000 response units. The kinetic constants were determined by a single-cycle kinetics analysis by injecting\nfive different concentrations (two-fold dilution series) of each peptide at the flow rate of 30 μL min–1.\nBinding sensorgrams were fitted using the standard 1:1 interaction model and analyzed using Biacore™\nInsight Software (Figure S8) ."}, "[2]": {"biological_target": "T1, ectodomain of MET fused to Fc (UniProt P08581 25-932)", "T1 construct": "MET (hepatocyte growth factor receptor), a receptor tyrosine kinase; also called MET-Fc; Fc-tagged MET", "assay": "SPR; fitted by a 1:1 binding model; who was immobilised and the conditions are in the Supporting Information (not shown)", "details": "both partners purified"}, "[3]": {"biological_target": "T2, ectodomain of MET fused to Fc (UniProt P08581 25-932)", "T2 chain": "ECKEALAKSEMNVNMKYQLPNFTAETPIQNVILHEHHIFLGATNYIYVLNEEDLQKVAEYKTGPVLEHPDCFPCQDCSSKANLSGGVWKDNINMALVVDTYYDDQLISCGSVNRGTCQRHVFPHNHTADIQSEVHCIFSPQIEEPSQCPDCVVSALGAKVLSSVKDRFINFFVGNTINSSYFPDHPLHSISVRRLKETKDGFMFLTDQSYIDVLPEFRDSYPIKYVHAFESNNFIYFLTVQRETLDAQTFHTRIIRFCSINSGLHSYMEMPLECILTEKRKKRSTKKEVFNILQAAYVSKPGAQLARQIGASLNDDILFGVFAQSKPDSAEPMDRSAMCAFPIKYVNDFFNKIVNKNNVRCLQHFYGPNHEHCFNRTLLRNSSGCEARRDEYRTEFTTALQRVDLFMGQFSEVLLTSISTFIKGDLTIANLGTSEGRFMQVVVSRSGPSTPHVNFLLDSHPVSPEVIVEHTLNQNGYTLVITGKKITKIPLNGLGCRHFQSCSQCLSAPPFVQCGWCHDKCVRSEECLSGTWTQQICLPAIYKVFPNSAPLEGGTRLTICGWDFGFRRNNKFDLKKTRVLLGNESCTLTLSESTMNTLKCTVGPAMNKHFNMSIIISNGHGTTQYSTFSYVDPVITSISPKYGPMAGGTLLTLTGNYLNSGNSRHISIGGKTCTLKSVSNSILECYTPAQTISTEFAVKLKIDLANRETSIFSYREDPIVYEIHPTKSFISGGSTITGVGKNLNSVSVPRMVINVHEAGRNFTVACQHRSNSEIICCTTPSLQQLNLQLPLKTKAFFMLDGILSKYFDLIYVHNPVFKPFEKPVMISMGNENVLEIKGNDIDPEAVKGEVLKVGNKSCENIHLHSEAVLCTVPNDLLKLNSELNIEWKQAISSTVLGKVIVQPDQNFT", "assay": "SPR"}}, "note": "Where a SMILES comes first, the peptide text is derived from it. Bridges are numbered along the chain shown (N, C = ends). Where no end group is shown, it is not given here. [ ]: non-standard residue; d: D form."}
{"molecule": "CC(C)C[C@@H]1NC(=O)[C@H](CCCCN)NC(=O)CNC(=O)[C@H](Cc2ccccc2)NC(=O)CNC(=O)[C@H](Cc2ccc(O)cc2)NC(=O)[C@H](C(C)C)NC(=O)[C@H](Cc2c[nH]c3ccccc23)NC(=O)[C@H](Cc2ccc(O)cc2)NC(=O)CSC[C@@H](C(=O)NCC(N)=O)NC(=O)[C@H](Cc2ccccc2)NC(=O)[C@H](C)NC(=O)[C@H](CCCNC(=N)N)NC(=O)[C@H](Cc2c[nH]c3ccccc23)NC(=O)[C@H](CC(=O)O)NC(=O)[C@H](CC(N)=O)NC(=O)[C@H](CC(N)=O)NC1=O", "note": "[14-1] ({CH2CO}-YWVYGFGKLNNDWRAFCG-NH2; thioether N-17)", "values": [{"measurement": "kd", "setting": "[1]; SPR conditions as E1", "result": 0.000739, "unit": "s⁻¹"}, {"measurement": "kon", "setting": "[1]", "result": 257000, "unit": "M⁻¹ s⁻¹"}]}
{"molecule": "CC[C@H](C)[C@@H]1NC(=O)[C@H](C(C)C)NC(=O)[C@H](CO)NC(=O)[C@H](CC(=O)O)NC(=O)[C@H](C(C)C)NC(=O)[C@H](CC(=O)O)NC(=O)[C@H](CCCCN)NC(=O)CNC(=O)[C@H](CO)NC(=O)[C@H](Cc2c[nH]c3ccccc23)NC(=O)[C@H](CO)NC(=O)[C@H](Cc2ccc(O)cc2)NC(=O)[C@H](Cc2ccc(O)cc2)NC(=O)CSC[C@@H](C(=O)NCC(N)=O)NC(=O)[C@H](CC(N)=O)NC(=O)[C@H](CC(N)=O)NC(=O)[C@H](Cc2c[nH]c3ccccc23)NC1=O", "note": "[14-2] ({CH2CO}-YYSWSGKDVDSVIWNNCG-NH2; thioether N-17)", "values": [{"measurement": "kd", "setting": "[1]; SPR conditions as E1", "result": 0.00182, "unit": "s⁻¹"}, {"measurement": "kon", "setting": "[1]", "result": 464000, "unit": "M⁻¹ s⁻¹"}]}
{"molecule": "CC(C)C[C@@H]1NC(=O)[C@H](CO)NC(=O)[C@H](Cc2c[nH]c3ccccc23)NC(=O)[C@H](CC(N)=O)NC(=O)[C@H](CCCCN)NC(=O)[C@H](CO)NC(=O)[C@H](CC(=O)O)NC(=O)[C@H](Cc2ccccc2)NC(=O)[C@H](CCC(=O)O)NC(=O)[C@H](CO)NC(=O)[C@H](Cc2c[nH]c3ccccc23)NC(=O)[C@H](CO)NC(=O)[C@H](CC(C)C)NC(=O)[C@H](Cc2ccc(O)cc2)NC(=O)CSC[C@@H](C(=O)NCC(N)=O)NC(=O)[C@H](Cc2ccc(O)cc2)NC(=O)[C@H](C)NC1=O", "note": "[14-3] ({CH2CO}-YLSWSEFDSKNWSLAYCG-NH2; thioether N-17)", "values": [{"measurement": "kd", "setting": "[1]; SPR conditions as E1", "result": 0.00297, "unit": "s⁻¹"}, {"measurement": "kon", "setting": "[1]", "result": 84900, "unit": "M⁻¹ s⁻¹"}]}
{"molecule": "CC(C)[C@@H]1NC(=O)[C@H](C)NC(=O)[C@H](CC(=O)O)NC(=O)[C@H](Cc2ccccc2)NC(=O)[C@H](CC(=O)O)NC(=O)[C@H](CCCNC(=N)N)NC(=O)CNC(=O)[C@H]([C@@H](C)O)NC(=O)[C@H](Cc2c[nH]c3ccccc23)NC(=O)[C@H](CO)NC(=O)[C@H](Cc2ccc(O)cc2)NC(=O)[C@H](Cc2ccc(O)cc2)NC(=O)CSC[C@@H](C(=O)NCC(N)=O)NC(=O)[C@H](CCCCN)NC(=O)[C@H](CC(N)=O)NC(=O)[C@H](Cc2c[nH]c3ccccc23)NC(=O)[C@H](CCCCN)NC1=O", "note": "[14-4] ({CH2CO}-YYSWTGRDFDAVKWNKCG-NH2; thioether N-17)", "values": [{"measurement": "kd", "setting": "[1]; SPR conditions as E1", "result": 0.00198, "unit": "s⁻¹"}, {"measurement": "kon", "setting": "[1]", "result": 798000, "unit": "M⁻¹ s⁻¹"}]}
{"molecule": "CC[C@H](C)[C@@H]1NC(=O)[C@H](C(C)C)NC(=O)[C@H](Cc2c[nH]c3ccccc23)NC(=O)[C@H](CC(=O)O)NC(=O)[C@H](CO)NC(=O)[C@H](CO)NC(=O)[C@H](CC(=O)O)NC(=O)[C@H](Cc2ccc(O)cc2)NC(=O)[C@H](Cc2ccc(O)cc2)NC(=O)[C@H](CCCCN)NC(=O)[C@H](Cc2c[nH]c3ccccc23)NC(=O)[C@H](CO)NC(=O)[C@H](CC(C)C)NC(=O)[C@H](Cc2ccc(O)cc2)NC(=O)CSC[C@@H](C(=O)NCC(N)=O)NC(=O)[C@H](CO)NC(=O)[C@H](CC(C)C)NC1=O", "note": "[14-5] ({CH2CO}-YLSWKYYDSSDWVILSCG-NH2; thioether N-17)", "values": [{"measurement": "kd", "setting": "[1]; SPR conditions as E1", "result": 0.00836, "unit": "s⁻¹"}, {"measurement": "kon", "setting": "[1]", "result": 129000, "unit": "M⁻¹ s⁻¹"}]}
{"molecule": "CC[C@H](C)[C@@H]1NC(=O)[C@H](Cc2ccc(O)cc2)NC(=O)CSC[C@@H](C(=O)NCC(N)=O)NC(=O)[C@H](CCCNC(=N)N)NC(=O)[C@H](C(C)C)NC(=O)[C@H](Cc2ccc(O)cc2)NC(=O)[C@H](C(C)C)NC(=O)[C@H](Cc2c[nH]c3ccccc23)NC(=O)[C@H](CO)NC(=O)[C@H](CCCCN)NC(=O)[C@H](CO)NC(=O)[C@H](CC(=O)O)NC(=O)[C@H](Cc2ccc(O)cc2)NC(=O)[C@H](C(C)C)NC(=O)[C@H](Cc2ccc(O)cc2)NC(=O)[C@H](Cc2c[nH]c3ccccc23)NC(=O)[C@H](CCC(=O)O)NC1=O", "note": "[14-6] ({CH2CO}-YIEWYVYDSKSWVYVRCG-NH2; thioether N-17)", "values": [{"measurement": "kd", "setting": "[1]; SPR conditions as E1", "result": 0.00564, "unit": "s⁻¹"}, {"measurement": "kon", "setting": "[1]", "result": 179000, "unit": "M⁻¹ s⁻¹"}]}
{"molecule": "CC(C)[C@@H]1NC(=O)[C@H](CCC(=O)O)NC(=O)[C@H](Cc2c[nH]cn2)NC(=O)[C@H]([C@@H](C)O)NC(=O)[C@H](CCCNC(=N)N)NC(=O)[C@H](CCCNC(=N)N)NC(=O)[C@H](CC(N)=O)NC(=O)[C@H](Cc2ccccc2)NC(=O)[C@H](CCC(N)=O)NC(=O)[C@H](CCCNC(=N)N)NC(=O)[C@@H](Cc2ccc(O)cc2)NC(=O)CSC[C@@H](C(=O)NCC(N)=O)NC(=O)[C@H](CC(=O)O)NC(=O)[C@H](CCCNC(=N)N)NC(=O)[C@H](CC(N)=O)NC(=O)[C@H](Cc2c[nH]c3ccccc23)NC1=O", "note": "[aMD4, reference compound] ({CH2CO}-[dY]RQFNRRTHEVWNRDCG-NH2; thioether N-16)", "values": [{"measurement": "Kd", "setting": "[1]; KD, SPR conditions as E1, 1:1 binding model", "result": 3.67, "unit": "nM"}, {"measurement": "kd", "setting": "[1]; SPR conditions as E1", "result": 0.00676, "unit": "s⁻¹"}, {"measurement": "kon", "setting": "[1]", "result": "1.84e+06", "unit": "M⁻¹ s⁻¹"}]}
{"molecule": "{CH2CO}-YSWYLNWQAQWKKFEFCG (thioether N-17 (inferred))", "note": "[6–1]", "values": [{"measurement": "koff", "setting": "[2]", "result": 0.0518, "unit": "s⁻¹"}]}
{"molecule": "{CH2CO}-YYHWNGRDGDKVEWVVCG-NH2 (thioether N-17; SMILES CC(C)[C@@H]1NC(=O)[C@H](CCCCN)NC(=O)[C@H](CC(=O)O)NC(=O)CNC(=O)[C@H](CC(=O)O)NC(=O)[C@H](CCCNC(=N)N)NC(=O)CNC(=O)[C@H](CC(N)=O)NC(=O)[C@H](Cc2c[nH]c3ccccc23)NC(=O)[C@H](Cc2c[nH]cn2)NC(=O)[C@H](Cc2ccc(O)cc2)NC(=O)[C@H](Cc2ccc(O)cc2)NC(=O)CSC[C@@H](C(=O)NCC(N)=O)NC(=O)[C@H](C(C)C)NC(=O)[C@H](C(C)C)NC(=O)[C@H](Cc2c[nH]c3ccccc23)NC(=O)[C@H](CCC(=O)O)NC1=O)", "note": "[8–2]", "values": [{"measurement": "koff", "setting": "[2]", "result": 0.0103, "unit": "s⁻¹"}]}
{"molecule": "{CH2CO}-YIEWNRFNSKLWNCNCCG (thioether N-17; cysteine pairing not given here)", "note": "[10–4]", "values": [{"measurement": "koff", "setting": "[3]", "result": 0.00809, "unit": "s⁻¹"}]}
{"molecule": "{CH2CO}-YWWYYWYRDEYLWRTRCG (thioether N-17 (inferred))", "note": "[10–6]", "values": [{"measurement": "koff", "setting": "[3]", "result": 0.00489, "unit": "s⁻¹"}]}
{"molecule": "{CH2CO}-YWYYTFDGRWEEYDAACG (thioether N-17 (inferred))", "note": "[8–3]", "values": [{"measurement": "Kd", "setting": "[2]", "result": 199, "unit": "nM"}, {"measurement": "koff", "setting": "[2]", "result": 0.0464, "unit": "s⁻¹"}]}
{"molecule": "{CH2CO}-YWYYTFDGRWKEYGAACG (thioether N-17 (inferred))", "note": "[8–1]", "values": [{"measurement": "koff", "setting": "[2]", "result": 0.0427, "unit": "s⁻¹"}]}
{"molecule": "{CH2CO}-YYSWSGNVSESVKWNSCG-NH2 (thioether N-17; SMILES CC(C)[C@@H]1NC(=O)[C@H](CC(N)=O)NC(=O)CNC(=O)[C@H](CO)NC(=O)[C@H](Cc2c[nH]c3ccccc23)NC(=O)[C@H](CO)NC(=O)[C@H](Cc2ccc(O)cc2)NC(=O)[C@H](Cc2ccc(O)cc2)NC(=O)CSC[C@@H](C(=O)NCC(N)=O)NC(=O)[C@H](CO)NC(=O)[C@H](CC(N)=O)NC(=O)[C@H](Cc2c[nH]c3ccccc23)NC(=O)[C@H](CCCCN)NC(=O)[C@H](C(C)C)NC(=O)[C@H](CO)NC(=O)[C@H](CCC(=O)O)NC(=O)[C@H](CO)NC1=O)", "note": "[12–2]", "values": [{"measurement": "koff", "setting": "[3]", "result": 0.00413, "unit": "s⁻¹"}]}
